This is an account of results in patent US20250320190A1, “Novel Inhibitors of Leucine Carboxyl Methyltransferase-1 (LCMT-1) and Methods of Use Thereof” (Temple University-Of The Commonwealth System of Higher …, priority 2024, published 2025).

For orientation: EC50 means the concentration giving half of the maximal effect. What is called kinetic solubility is solubility judged after dilution from a stock solution rather than from solid.

SMILES strings stand for the structures. ≈ marks a conversion by molar mass, not a printed value.

Data set [1] concerns MCF7 cells. The data set is described as follows: Cytotoxicity assay (calcein-AM). The following applies: MCF7, 48 hours. The data set is classed as cell-based, human. As for the experimental part: (§1) HS-5, HEK-293, MCF7, MDA-MB-231 and Rosi cells were seeded in 96-well optical bottom tissue culture plates (Corning, New York) at a density of 2.5×10^3 cells/well. After 24 hours, the media were changed to media containing LB-100 (Cayman Chemical Company, Ann Arbor, Michigan) or Compound 2 at various concentrations (50-0.31 μM). Control cells were given fresh media. After 48 hours the media were aspirated and plates were washed with warmed Dulbecco's phosphate-buffered saline (DPBS) with calcium and magnesium (Sigma-Aldrich, catalog #D1283). Cells were stained with 3 μM calcein-AM (AAT Bioquest, Pleasanton, California, catalog #22002) in DPBS for 30 minutes in the dark at 37° C. Plates were immediately read with a Biotek fluorescent plate reader (excitation 485 nm, emission 520 nm). The cytotoxicity assays were performed at least three times, each time with six replicates per condition.

The test system of data set [2] is MDA-MB-231 cells. Briefly: Cytotoxicity assay (calcein-AM). The data set is classed as cell-based, human. The following applies: MDA-MB-231, 48 hours. As for the experimental part:
as §1

Data set [3] has as its system HEK-293 cells transfected with pCMV6-LCMT1. The data set is described as follows: Cytotoxicity assay in LCMT-1-transfected cells. The following applies: HEK-293 pCMV6-LCMT1 vs HEK-293; 0.78-50 μM; 48 hours. It is filed as cell-based. The protocol:
A mammalian LCMT-1 plasmid expression vector was obtained from Origene (pCMV6-LCMT1, catalog #RC200018). HEK-293 cells were transfected with the plasmid using PolyJet™ transfection reagent (SignaGen Laboratories, Frederick, Maryland) according to manufacturer's directions. After 5 hours, the medium was changed. The next day, the transfected cells were seeded in 96-well optical bottom tissue culture plates for cytotoxicity assays as previously described. After 24 hours, the medium was changed to medium containing Compound 2 at various concentrations (0.78-50 μM), or fresh medium with the carrier (dimethyl sulfoxide) in the case of the control. After 48 hours, cells were stained with calcein-AM and fluorescence was measured.

Data set [4] relates to MCF7 cells. The data set is described as follows: Cell cycle analysis (BrdU flow cytometry). It is filed as cell-based, human. The settings on record: 20 μM, 24 hours. As for the experimental part: (§2) MCF7, MDA-MB-231 and Rosi cells were seeded in 6-well tissue culture plates (Celltreat) at a density of 5×10^5 cells per well. After 24 hours, the DMEM was changed to media containing 20 μM LB-100 or Compound 2. Control cells were given fresh media. After 24 hours, cells were labeled with 50 μM bromodeoxyuridine (BrdU, BioGems, Westlake Village, California, catalog #5911439). Cells were lifted with 0.25% trypsin, 2.21 mM ethylenediaminetetraacetic acid (Corning catalog #25-053-CI) after 4 hours and fixed with 70% ethanol overnight at 4° C. Cells were pelleted and cellular DNA was denatured with HCl. After neutralization with 1 M Tris, pH 8.5, cells were labeled with FITC-anti-BrdU (Biolegend, San Diego, California, catalog #364104, 5 μL/100 μL cell suspension) and 7-aminoactinomycin-D (7-AAD, Biolegend, catalog #420404, 1 μL/100 μL cell suspension). Cells were analyzed with a Becton-Dickinson FACSymphony™ flow cytometer. Cell cycle analyses were performed three times.
Background: In flow cytometry, cells or beads pass a laser one at a time.

The subject of data set [5] is MDA-MB-231 cells. The data set is described as follows: Cell cycle analysis (BrdU flow cytometry). The data set is classed as cell-based, human. The settings on record: 20 μM, 24 hours. As for the experimental part:
as §2

Data set [6] has as its system Rosi cells. The data set is described as follows: Cell cycle analysis (BrdU flow cytometry). It is filed as cell-based, human. The following applies: 20 μM, 24 hours. As for the experimental part:
as §2

A short description of data set [7]: Kinetic solubility. It is filed as physicochemical. The following applies: 2% dimethylsulfoxide/PBS, aqueous buffer, kinetic from dmso stock; read-out: Max. Kinetic Solubility. The text has this:
(§3) There is no cause for concern at this stage since there are multiple strategies and reagents for enhancing aqueous solubility for animal in vivo studies (Savjani, K. T., A. K. Gajjar and J. K. Savjani, 2012, ISRN Pharm 2012: 195727.). […] While target tissue exposure is dependent on free, unbound fractions in the plasma, plasma protein binding can protect compounds from hepatic metabolism. Thus, in vivo metabolism and excretion are often determined by a balance between these two properties. In vivo half-life is a complicated property impacted upon by multiple factors and is difficult to predict. […] While these numbers are somewhat low for a drug candidate, they are acceptable for proof of concept tool molecules which can be given multiple times per day and at higher doses to saturate metabolism.

A short description of data set [8]: Plasma protein binding. The following applies: read-out: Plasma Protein Binding (bound fraction) (converted). The data set is classed as in vitro ADME.
Text: as §3

Data set [9] can be described thus: Plasma stability. It is filed as in vitro ADME. The settings on record: mouse plasma; read-out: Plasma Stability (t1/2).
Text: as §3

The subject of data set [10] is SCC-15 cells. Briefly: Annexin V assay with and without irradiation. It is filed as cell-based, human. The protocol:
(§4) Head and neck cancer (HNC) cell lines were used for further analyses. Cells were seeded in 60 mm dishes at a density of 8×10^5 cells/dish. After 24 hours, cells were treated with LCMT-li, radiotherapy or both. Control cells were given fresh media. Because radiosensitization was seen between 2.5-10 μM in SCC-15, SCC-25, UM-SCC-49, and UM-SCC-69, irradiated cells were treated with or without 10 μM LCMT-li as described. Twenty-four hours after treatment, cells were lifted with Accutase and washed twice with PBS (pH 7.4) with 10% FBS. Cells were resuspended in annexin V binding buffer (10 mM HEPES (pH 7.4), 140 mM NaCl and 2.5 mM CaCl2)) and labeled with FITC-anti-Annexin V and 7-AAD (Biolegend, San Diego, California, FITC Annexin V Apoptosis Detection Kit with 7-AAD, catalog #640922). Cell surface annexin V expression was assessed immediately with flow cytometry. Annexin V assays were performed with 12 replicates, 104 cells/replicate.

Data set [11] has as its system SCC-25 cells. Briefly: Annexin V assay with and without irradiation. The settings on record: alone or in combination with irradiation. The data set is classed as cell-based, human. As for the experimental part: as §4
In data set [12] the test system is UM-SCC-12 cells. The data set is described as follows: Annexin V assay with and without irradiation. It is filed as cell-based, human. The protocol: as §4
Data set [13] relates to UM-SCC-14a cells. The data set is described as follows: Annexin V assay with and without irradiation. It is filed as cell-based, human. The settings on record: LCMT-li combined with irradiation. The protocol: as §4
Data set [14] relates to UM-SCC-49 cells. Briefly: Annexin V assay with and without irradiation. It is filed as cell-based, human. The following applies: LCMT-li, irradiation or both. The protocol:
as §4

Data set [15] concerns UM-SCC-69 cells. The data set is described as follows: Annexin V assay with and without irradiation. It is filed as cell-based, human. The protocol:
as §4

Setting [16] is: Homo sapiens, read-out: Log [μM] EC50 (converted).
Setting [17] is: 10 μM LCMT-li with irradiation vs irradiation alone.
The mark [18] stands for this setting: LCMT-li monotherapy vs control cells.

As to `COC(=O)c1c(NC(=O)c2ccccc2C)sc(C(=O)Nc2cccc(C)c2)c1C` [Compound 2, methyl 4-methyl-2-[(2-methylbenzoyl)amino]-5-[[(3-methylphenyl)amino]carbonyl]-3-thiophenecarboxylate], the values for the EC50 in data set [1] (setting [16]) and in data set [2] (setting [16]) were 2.24 µM and 3.89 µM, respectively. The inhibition of survival entry in data set [1] (concentrations tested 50-0.31 μM) is “Neither LB-100 nor Compound 2 significantly inhibited survival”. In addition, in data set [2], the “concentration at which survival was significantly inhibited” value is 25 µM. The “effect of LCMT-1 overexpression on survival in the presence of Compound 2” value in data set [3] is “significantly increased survival”. In addition, the cell cycle effect result in data set [4] is “did not change cell cycle dynamics”; in [5] it was “did not change cell cycle dynamics”; in [6] it was “induced G0/G1 arrest”. Moreover, in [7], the solubility (kinetic) came out at 18.5 µM (≈ 7.82 µg/mL). Besides, the fraction unbound in data set [8] is 0.029. Further, in [9], the half-life is above 3 h. For the same compound, the “apoptosis (annexin V)” value in [10] (setting [17]) was “increased apoptosis in comparison to irradiation alone”; in [10] (LCMT-li monotherapy vs control cells, 24 hours) it was “increased apoptosis”; in [12] (setting [18]), “increased apoptosis”; in data set [12] (with irradiation vs irradiation alone), “did not increase apoptosis in the presence of irradiation as compared to irradiation alone”; in data set [15] (setting [17]), “increased apoptosis in comparison to irradiation alone”; in data set [15] (setting [18]) it was “increased apoptosis”. For the same compound, the apoptosis or ferroptosis result in [11] was “did not increase apoptosis or ferroptosis”. The programmed cell death result in data set [13] is on record as “did not increase programmed cell death”. Also, the “apoptosis, necroptosis and ferroptosis” value in data set [14] is “did not differ between the experimental conditions”.
